This is an account of results in US7476687B2, “Substituted furo[2,3-g]indazoles for the treatment of glaucoma” (Alcon, Inc., priority 2003, dated 2009).

Experiment [1] deals with T1, 5HT2A(rat) (Rattus norvegicus, UniProt P14842). The experiment in a line: 5HT2 Functional Assay: [Ca2+]i Mobilization (FLIPR, A7r5 cells). It counts as cell-based. Further details: endogenous in cells; host or cells: A7r5 rat vascular smooth muscle cells. To be noted: for EC50: [Ca2+]i mobilization, rat vascular smooth muscle cells A7r5; for Emax: percentage of maximum 5-HT-induced response, A7r5 cells. Here is the method:
The receptor-mediated mobilization on intracellular calcium ([Ca^2+]i) was studied using the Fluorescence Imaging Plate Reader (FLIPR) instrument. Rat vascular smooth muscle cells, A7r5, were grown in a normal media of DMEM/10% FBS and 10 μg/mL gentamycin. Confluent cell monolayers were trypsinized, pelleted, and re-suspended in normal media. Cells were seeded in a 50 μL volume at a density of 20,000 cells/well in a black wall, 96-well tissue culture plate and grown for 2 days.
On the day of the experiment, one vial of FLIPR Calcium Assay Kit dye was re-suspended in 50 mL of a FLIPR buffer consisting of Hank's Balanced Salt Solution (HBSS), 20 mM HEPES, and 2.5 mM probenecid, pH 7.4. Cells were loaded with the calcium-sensitive dye by addition of an equal volume (50 μL) to each well of the 96-well plate and incubated with dye for 1 h at 23° C.
Compounds were diluted 1:50 in 20% DMSO/20% Ethanol. For “hit” screening, compounds were further diluted 1:10 in FLIPR buffer and tested at a final concentration of 10 μM.
The compound plate and cell plate were placed in the FLIPR instrument. At the beginning of an experimental run, a signal test was performed to check the basal fluorescence signal from the dye-loaded cells and the uniformity of the signal across the plate. The basal fluorescence was adjusted between 8000-12000 counts by modifying the exposure time, the camera F-stop, or the laser power. Instrument settings for a typical assay were the following: laser power 0.3-0.6 W, camera F-stop F/2, and exposure time 0.4 sec. An aliquot (25 μL) of the test compound was added to the existing 100 μL dye-loaded cells at a dispensing speed of 50 μL/sec. Fluorescence data were collected in real-time at 1.0 sec intervals for the first 60 secs and at 6.0 sec intervals for an additional 120 secs.

In experiment [2] the target is T1, 5HT2A(rat). The experiment in a line: 5-HT2 Receptor Binding Assay ([125I]DOI competition, cerebral cortex homogenates). Conditions: inhibition of [125I]DOI binding. On the set-up: Aliquots of post mortem rat or human cerebral cortex homogenates (400 μL) dispersed in 50 mM TrisHCl buffer; from tissue; host or cells: post mortem rat cerebral cortex homogenate. Here is the method: 5-HT2 Receptor Binding Assay
Aliquots of post mortem rat or human cerebral cortex homogenates (400 μL) dispersed in 50 mM TrisHCl buffer (pH 7.4) are incubated with [^125I]DOI (80 pM final) in the absence or presence of methiothepin (10 μM final) to define total and non-specific binding, respectively, in a total volume of 0.5 mL. The assay mixture is incubated for 1 hour at 23° C. in polypropylene tubes and the assays terminated by rapid vacuum filtration over Whatman GF/B glass fiber filters previously soaked in 0.3% polyethyleneimine using ice-cold buffer. Test compounds (at different concentrations) are substituted for methiothepin. Filter-bound radioactivity is determined by scintillation spectrometry on a beta counter. The data are analyzed using a non-linear, iterative curve-fitting computer program [Trends Pharmacol. Sci., 16, 413 (1995)] to determine the compound affinity parameter. The concentration of the compound needed to inhibit the [^125I]DOI binding by 50% of the maximum is termed the IC50 or Ki value.

Where a name gives a salt, the structure may show the parent alone.

T1 sequence (P14842 whole entry): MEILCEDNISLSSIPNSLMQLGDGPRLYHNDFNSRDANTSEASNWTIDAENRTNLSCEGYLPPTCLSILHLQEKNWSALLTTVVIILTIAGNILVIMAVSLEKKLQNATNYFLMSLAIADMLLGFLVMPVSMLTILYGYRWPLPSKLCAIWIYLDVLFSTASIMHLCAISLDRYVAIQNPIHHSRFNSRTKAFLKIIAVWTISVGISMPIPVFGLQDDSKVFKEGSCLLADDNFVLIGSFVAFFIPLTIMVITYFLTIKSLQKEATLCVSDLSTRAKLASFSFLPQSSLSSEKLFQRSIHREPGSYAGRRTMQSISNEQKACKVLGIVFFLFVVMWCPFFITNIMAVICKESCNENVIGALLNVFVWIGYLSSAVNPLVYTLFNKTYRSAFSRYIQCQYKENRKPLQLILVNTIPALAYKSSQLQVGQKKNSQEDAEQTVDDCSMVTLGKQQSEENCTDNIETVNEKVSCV

Consider `C[C@H](N)Cn1ncc2ccc3oc(CNC(=O)c4cccnc4)cc3c21` [Example 17], for which, in experiment [1], the EC50 – broadly, the concentration that produces a half-maximal response – came to 0.022 µM and the Emax (in general, the maximal effect, on the per cent scale that the assay sets) is 95%. In experiment [2], the half-maximal inhibitory concentration (IC50) – broadly, the point on the concentration scale where inhibition reaches its midpoint – came to 0.003 µM.
In the case of `C[C@H](N)Cn1ncc2ccc3oc(CN4CCN(c5ccccn5)CC4)cc3c21` [Example 20, (S)-1-Methyl-2-[7-(4-pyridin-2-yl-piperazin-1-ylmethyl)-furo[2,3-g]indazol-1-yl]-ethylamine], in experiment [1], the EC50 came to 0.141 µM and the Emax is 81%.
In experiment [1], `CCNC(=O)NCc1cc2c(ccc3cnn(C[C@H](C)N)c32)o1` [Example 18, 1-[1-((S)-2-Aminopropyl)-1H-furo[2,3-g]indazol-7-ylmethyl]-3-ethylurea] gave a half-maximal effective concentration (EC50) of 0.023 µM and an Emax of 87%. In experiment [2], this compound came in with an IC50 of 0.0041 µM.
Regarding `CNC(=O)Cc1cc2c(ccc3cnn(C[C@H](C)N)c32)o1` [Example 16, 2-[1-((S)-2-Amino-propyl)-1H-furo[2,3-g]indazol-7-yl]-N-methyl-acetamide], in experiment [1], the EC50 came to 0.028 µM and the Emax is 97%. In experiment [2], this compound gave an IC50 of 0.0007 µM.
The corresponding values for `CC(O)CNC(=O)c1cc2c(ccc3cnn(C[C@H](C)N)c32)o1` (stereo partly drawn) [Example 9, 1-((S)-2-Aminopropyl)-1H-furo[2,3-g]indazole-7-carboxylic acid (2-hydroxypropyl)-amide] are 0.027 µM, 98% and 0.0015 µM.
For `C[C@H](N)Cn1ncc2ccc3oc(C(=O)NCCN4CCOCC4)cc3c21` [Example 7, 1-((S)-2-Aminopropyl)-1H-furo[2,3-g]indazole-7-carboxylic acid (2-morpholin-4-yl-ethyl)-amide] the same measures were 0.109 µM, 89% and 0.0013 µM.
For `C[C@H](N)Cn1ncc2ccc3oc(C(=O)NCC4(O)CC4)cc3c21` [Example 10, 1-((S)-2-Aminopropyl)-1H-furo[2,3-g]indazole-7-carboxylic acid (1-hydroxy-cyclopropylmethyl)-amide] the same measures were 0.015 µM, 94% and 0.0011 µM.
In experiment [1], `CC(=O)NCCCNC(=O)c1cc2c(ccc3cnn(C[C@H](C)N)c32)o1` [Example 12, 1-((S)-2-Amino-propyl)-1H-furo[2,3-g]indazole-7-carboxylic acid (3-acetylaminopropyl)-amide] yielded an EC50 of 0.037 µM and an Emax of 95%. Moreover, in experiment [2], the IC50 is 0.0014 µM.
For `Cc1ccc(CNC(=O)c2cc3c(ccc4cnn(C[C@H](C)N)c43)o2)o1` [Example 14, 1-((S)-2-Aminopropyl)-1H-furo[2,3-g]indazole-7-carboxylic acid (5-methyl-furan-2-ylmethyl)amide] the same measures were 0.181 µM, 94% and 0.0003 µM.
The corresponding values for `COCCNC(=O)c1cc2c(ccc3cnn(C[C@H](C)N)c32)o1` [Example 8, 1-((S)-2-Aminopropyl)-1H-furo[2,3-g]indazole-7-carboxylic acid (2-methoxyethyl)-amide] are 0.054 µM, 94% and 0.0023 µM.
In experiment [1], `C[C@H](N)Cn1ncc2ccc3oc(C(=O)NCCO)cc3c21` [Example 5, 1-((S)-2-Aminopropyl)-1H-furo[2,3-g]indazole-7-carboxylic acid (2-hydroxyethyl)-amide fumarate] gave an EC50 of 0.055 µM and an Emax of 94%. The compound also yielded an IC50 in experiment [2] of 0.0035 µM.
The corresponding values for `Cc1noc(-c2cc3c(ccc4cnn(C[C@H](C)N)c43)o2)n1` [Example 15, (S)-1-Methyl-2-[7-(3-methyl-1,2,4-oxadiazol-5-yl)-furo[2,3-g]indazol-1-yl]-ethylamine] are 0.283 µM, 101% and 0.0009 µM.
